Patent US5910494A, “Hypolipidemic 1,4-benzothiazepine-1,1-dioxides” (Glaxo Wellcome Inc., priority 1997, dated 1999)

Tested on: ileal bile acid active uptake transport system
Experiment: In vivo inhibition of bile acid uptake: fecal excretion of 75SeHCAT (% inhibition of 75SeHCAT)
Set-up: species or system Male Spraque-Dawley rats
Settings: oral gavage, twice daily for two days, rat, feces over 24 hr
From the text: In vivo inhibition of bile acid uptake
Inhibiting intestinal bile acid absorption with bile acid sequestrants or surgically with partial ileal bypass surgery is an effective way to decrease plasma LDL cholesterol concentration. Another approach to decreasing bile acid absorption is inhibiting the ileal bile acid active uptake transport system. It has been shown that this inhibition, as measured by the fecal excretion of bile acids results in hypocholesterolemic activity. (1) Lewis, M. C.; Brieaddy, L. E.; and Root, C. Effects of 2164U90 on Ileal Bile Acid Absorption and Serum Cholesterol in Rats and Mice. J. Lipid. Research., 1995, 36, 1098-1105.
Fecal Excretion of Bile Acids
Male Spraque-Dawley rats weighing 220-260 g were housed in individual cages and fed normal chow. The rats were divided into 6 treatment groups of 10 to 12 rats per group. The rats were dosed by oral gavage(1 mL/100 g body weight) with test compounds as a suspension in 0.5% methylcellulose at 9:00 am and 3:30 pm for two days. The control group received 0.5% methylcellulose. Two hours after the morning dose on day two, the rats were given a trace amount(1.3 nmoles) of 23, 25-^75 Se-homocholic acid taurine(^75 SeHCAT) in 1.0 mL saline orally. ^75 SeHCAT, a synthetic gamma emitting bile acid analog which is absorbed by the ileal bile acid uptake system similar to taurocholic acid, has been used clinically as a measure of ileal bile acid absorptionl,^1,2. Feces were collected over the 24 hr following ^75 SeHCAT administration. Fecal content of ^75 SeHCAT was determined using a Packard Auto-Gamma 5000 Series gamma-counter. Representative data are tabulated in Table 1 as the % inhibition of ^75 SeHCAT.

SMILES	% Inhibition of ^75 SeHCAT (0.3 mg/kg) [%]	% Inhibition of ^75 SeHCAT (1.0 mg/kg) [%]	% Inhibition of ^75 SeHCAT (0.1 mg/kg) [%]
CCCC[C@]1(CC)CS(=O)(=O)c2cc(OC)c(C=O)cc2[C@@H](c2ccccc2)N1 (relative stereo) [Example 14, (+-)-Trans-3-butyl-3-ethyl-2,3,4,5-tetrahydro-8-methoxy-5-phenyl-1,4-benzothiazepine-7-carbaldehyde 1,1-dioxide]	41	56	–
CCCC[C@]1(CC)CS(=O)(=O)c2cc(OC)c(COC)cc2[C@@H](c2ccccc2)N1 (relative stereo) [Example 24, (+-)-Trans-3-butyl-3-ethyl-2,3,4,5-tetrahydro-8-methoxy-7-(methoxymethyl)-5-phenyl-1,4-benzothiazepine 1,1-dioxide]	24	49	–
CCCC[C@]1(CC)CS(=O)(=O)c2cc(OC)ccc2[C@@H](c2ccccc2)N1 (relative stereo) [Example 10, (+-)-Trans-3-butyl-3-ethyl-2,3,4,5-tetrahydro-8-methoxy-5-phenyl-1,4-benzothiazepine 1,1-dioxide]	53	–	33
CCCC[C@]1(CC)CS(=O)(=O)c2cc(O)c(OC)cc2[C@@H](c2ccccc2)N1 [Example 9, (3R,5R)-3-Butyl-3-ethyl-2,3,4,5-tetrahydro-7-methoxy-5-phenyl-1,4-benzothiazepine-8-ol 1,1-dioxide]	80	–	70
CCCC[C@]1(CC)CS(=O)(=O)c2cc(OC)c(OC)cc2[C@@H](c2ccccc2)N1 [Example 1, (3R,5R)-3-butyl-3-ethyl-2,3,4,5-tetrahydro-7,8-dimethoxy-5-phenyl-1-4-benzothiazepine 1,1-dioxide]	51	–	54
CCCC[C@]1(CC)CS(=O)(=O)c2cc(S(=O)(=O)O)ccc2[C@@H](c2ccccc2)N1 (relative stereo) [Example 18, (+-)-Trans-3-butyl-3-ethyl-2,3,4,5-tetrahydro-5-phenyl-1,4-benzothiazepine-8-sulfonic acid 1,1-dioxide]	12	39	–
CCCC[C@]1(CC)CS(=O)(=O)c2cc(OC)c(OC)cc2[C@@H](c2ccccc2)N1OC(C)=O (relative stereo) [Example 45, (+-)-Trans-3-butyl-3-ethyl-5-phenyl-2,3,4,5-tetrahydro-7,8-dimethoxy-1,4-benzothiazepin-4-yl acetate S,S-dioxide]	6	26	–
CCCC[C@]1(CC)CS(=O)(=O)c2cc(O)c(C=O)cc2[C@@H](c2ccccc2)N1 (relative stereo) [Example 16, (+-)-Trans-3-butyl-3-ethyl-2,3,4,5-tetrahydro-8-hydroxy-5-phenyl-1,4-benzothiazepine-7-carbaldehyde 1,1-dioxide]	34	44	–
CCCC[C@]1(CC)CS(=O)(=O)c2cc(O)c(O)cc2[C@@H](c2ccccc2)N1 [Example 7, (3R,5R)-3-Butyl-3-ethyl-2,3,4,5-tetrahydro-5-phenyl-1,4-benzothiazepine-7,8-diol 1,1-dioxide]	65	–	72
CCCC[C@]1(CC)CS(=O)(=O)c2cc(O)ccc2[C@@H](c2ccccc2)N1 (relative stereo) [Example 11, (+-)-trans-3-butyl-3-ethyl-2,3,4,5-tetrahydro-5-phenyl-1,4-benzothiazepine-8-ol 1,1-dioxide]	72	–	71
